Laboratory results reported in US8680065B2, “Oligonucleotides of human endogenous retrovirus 9 (ERV-9) long terminal repeat (LTR) and methods of use” (The United States of America, as represented by the …, priority 2008, dated 2014).

Experiments:
[1] = test system: HT1080 cells (a fibrosarcoma cell line); experiment: Cancer cell proliferation, oligonucleotide in LIPOFECTAMINE, 48 hours, direct cell counting; format: cell-based, human; conditions: P<0.05
Procedure: FIG. 1 is a graph showing the effect of sense and antisense ERV-9 U3 oligonucleotides (SEQ ID NOs: 1 and 2, respectively) on proliferation of HT1080 cells (a fibrosarcoma cell line). Cells (4×10^4) were treated with ERV-9 U3 sense or antisense oligonucleotide formulated in LIPOFECTAMINE™ at the concentrations shown for 48 hours. Green fluorescent protein (GFP) sense oligonucleotide (SEQ ID NO: 3) was used as a control to measure the non-specific cytotoxicity of phosphorothioate-based oligonucleotides. Antisense oligonucleotides specific for Bcl-2 (G3139; SEQ ID NO: 4), telomerase (GRN163; SEQ ID NO: 5) and MDM2 (SEQ ID NO: 6) were also evaluated. Cell proliferation levels were expressed relative to cells transfected with 10 μg/ml GFP oligonucleotide.
To test the effect of the sense and antisense ERV-9 U3 oligonucleotides on proliferation of cancer cells, six different cancer cell lines were selected for transfection studies: HT1080, fibrosarcoma cells (FIG. 1); MDA-231, breast cancer cells (FIG. 2); K562, myelogenous leukemia cells (FIG. 3); LNcaP, prostate cancer cells (FIG. 4); HepG2, hepatocellular carcinoma cells (FIG. 5); and MCF-7, breast cancer cells (FIG. 6). Cells (4×10^4) were treated with ERV-9 U3 sense or antisense oligonucleotide formulated in LIPOFECTAMINE™ at an oligonucleotide concentration of 10, 20 or 30 μg/ml for 48 hours. Green fluorescent protein (GFP) sense oligonucleotide ([…]; SEQ ID NO: 3) was used as a control to measure the non-specific cytotoxicity of phosphorothioate-based oligonucleotides. Antisense oligonucleotides specific for Bcl-2 (G3139; TCTCCCAGCGTGCGCCAT; SEQ ID NO: 4), telomerase (GRN163; TAGGGTTAGACAA; SEQ ID NO: 5), and MDM2 ([…]; SEQ ID NO: 6) were also evaluated. […] After 48 hours of oligonucleotide treatment, cell proliferation was assessed by direct cell counting. Cell proliferation levels were expressed relative to cells transfected with 10 μg/ml GFP control oligonucleotide.

[2] = test system: MDA-231 cells; experiment: Cancer cell proliferation, oligonucleotide in combination with VP16, 48 hours; format: cell-based, human; conditions: oligonucleotide 15 μg/ml with VP16 30 ng/ml and 50 ng/ml, P<0.05
[3] = test system: K562 cells; experiment: as above; format: cell-based, human; conditions: oligonucleotide 15 μg/ml with VP16 30 ng/ml and 50 ng/ml, P<0.05
Procedure: (§1) FIG. 9 is a graph showing proliferation of K562 cells treated with ERV-9 U3 sense or antisense oligonucleotide (SEQ ID NOs: 1 and 2, respectively), in combination with VP16. Cells (4×10^4) were treated with oligonucleotide (15 μg/ml) alone or in combination with the concentrations of VP16 shown for 48 hours.
(§2) To test the effect of treating cancer cells with the combination of ERV-9 U3 oligonucleotide and VP16, six different cancer cell lines were analyzed: HT1080, (FIG. 7); MDA-231 (FIG. 8); K562 (FIG. 9); LNcaP (FIG. 10); HepG2 (FIG. 11); and MCF-7 (FIG. 12). Cells (4×10^4) were treated with 15 μg/ml ERV-9 U3 sense (SEQ ID NO: 1) or antisense (SEQ ID NO: 2) oligonucleotide alone or in combination with VP16 at a concentration of 30 ng/ml or 50 ng/ml. After 48 hours, cell proliferation was assessed by direct cell counting. Cell proliferation levels were expressed relative to GFP oligonucleotide control in the absence of VP16.

[4] = test system: LNcaP cells; experiment: as above; format: cell-based, human; conditions: oligonucleotide 15 μg/ml with VP16 30 ng/ml and 50 ng/ml
Procedure: as §1, with “FIG. 10” for “FIG. 9”, “of LNcaP” for “of K562”
as §2

[5] = test system: HT1080, MDA-231, K562, LNcaP, HepG2 and MCF-7 cancer cell lines; experiment: Cancer cell proliferation, Example 2, summary over six cancer cell lines, alone or with VP16; format: cell-based, human; conditions: for proliferation relative to GFP control oligonucleotide: each of six cancer cell lines, oligonucleotide 15 μg/ml, 48 hours; for proliferation compared with Bcl-2, telomerase and MDM2-specific antisense oligonucleotides: six cancer cell lines, alone or with VP16, in most instances
Procedure: as §2

[6] = test system: HT1080 tumor xenografts; experiment: Growth of human tumor xenografts in SCID mice; format: in vivo; conditions: HT1080 xenograft; for tumor growth, combination treatment with VP16: 50 μg oligonucleotide and 50 ng VP16 once per day; for tumor burden compared to treatment with G3139: 50 μg oligonucleotide per mouse; for tumor growth (tumor size): 50 μg oligonucleotide per mouse injected around tumor once per day
Procedure: (§3) FIG. 18A is a pair of graphs showing the effect of sense and antisense ERV-9 U3 oligonucleotides (SEQ ID NOs: 1 and 2, respectively) on growth of MDA-231 (top) and HT1080 (bottom) tumor xenografts in SCID mice. Mice were injected with 50 μg of the indicated oligonucleotides once per day for 14 days (MDA-231) or 7 days (HT1080).
(§4) FIG. 18B is a pair of graphs showing the effect of sense and antisense ERV-9 U3 oligonucleotides (SEQ ID NOs: 1 and 2, respectively) on growth of MDA-231 (top) and HT1080 (bottom) tumor xenografts in SCID mice in combination with VP16. Mice were injected with 50 μg of the indicated oligonucleotides and 50 ng of VP16 once per day for 24 days (MDA-231) or 14 days (HT1080).
(§5) CB-17 prkdc(SCID) male, 4- to 6-week-old SCID mice were purchased from the Jackson Laboratory. Cultured cells (MDA-231 or HT1080 cells) were washed with and resuspended in serum-free media. The suspension (2×10^6 cells in 0.2 ml per mouse) was then injected into the chest area of the mice. The mice were monitored by measuring tumor growth and body weight and by general clinical observation. When tumor size reached approximately 4×4 mm, tumor-bearing mice were randomly divided into multiple treatment and control groups (five mice per group). All oligonucleotides, dissolved in PBS, were injected into the surrounding area of the tumor at doses of 50 μg per mouse (approximately 2.5 mg/kg), one time per day, 5 days/week until the tumor size of the control injected tumors reached about 20×20 mm (2×2 cm). The tumors were dissected from mice and weighed with the investigator blinded as to the treatment group. In combination therapy, 50 μg of the oligonucleotide (approximately 2.5 mg/kg) and 50 ng of VP16 (approximately 2.5 μg/kg), both dissolved in PBS, were injected together (one time per day, 5 days/week) into the surrounding area of the tumor to all groups.

[7] = test system: MDA-231 tumor xenografts; experiment: Growth of human tumor xenografts in SCID mice; format: in vivo; conditions: MDA-231 xenograft; for tumor growth, combination treatment with VP16: 50 μg oligonucleotide and 50 ng VP16 once per day; for tumor burden compared to treatment with G3139: 50 μg oligonucleotide per mouse; for tumor growth (tumor size): 50 μg oligonucleotide per mouse injected around tumor once per day
Procedure: as §3, §4, §5

[8] = oligonucleotide 20 μg/ml and 30 μg/ml

Substance | cell proliferation relative to GFP oligonucleotide ([1]; oligonucleotide 10 μg/ml) | cell proliferation relative to GFP oligonucleotide [1, 8] | cell proliferation relative to GFP oligonucleotide control [2] | cell proliferation relative to GFP oligonucleotide control [3] | cell proliferation relative to GFP oligonucleotide control [4] | proliferation relative to GFP control oligonucleotide [5] | proliferation compared with Bcl-2, telomerase and MDM2-specific antisense oligonucleotides [5] | tumor growth, combination treatment with VP16 [6] | tumor burden compared to treatment with G3139 [6] | tumor growth (tumor size) [6] | tumor growth, combination treatment with VP16 [7] | tumor burden compared to treatment with G3139 [7] | tumor growth (tumor size) [7]
U3S: ERV-9 LTR U3 sense oligonucleotide CTCAAGGTTTGTAAACACACCAATCAG, phosphorothioate internucleoside linkages at each position (all phosphorothioate, sugars by position and methylation of C not given here) [Oligo U3S] | inhibited cell proliferation better than GFP oligonucleotide | inhibited cell proliferation better than GFP control and G3139, GRN163 and MDM2 antisense oligonucleotides | inhibited cell proliferation better than GFP oligonucleotide | inhibited cell proliferation better than GFP control and G3139, GRN163 and MDM2 antisense oligonucleotides | inhibited cell proliferation better than GFP oligonucleotide | resulted in a significant decrease in proliferation of each cancer cell line tested, relative to GFP control oligonucleotide | inhibited proliferation to a greater extent than the Bcl-2, telomerase and MDM2-specific antisense oligonucleotides, either alone or in combination with VP16 | inhibited tumor growth when co-administered with VP16 better than GFP oligonucleotide or G3139 antisense oligonucleotide | had reduced tumor burden for both MDA-231 and HT1080 tumors, although this did not reach statistical significance | inhibited tumor growth better than GFP oligonucleotide or G3139 antisense oligonucleotides | inhibited tumor growth when co-administered with VP16 better than GFP oligonucleotide or G3139 antisense oligonucleotide | had reduced tumor burden for both MDA-231 and HT1080 tumors, although this did not reach statistical significance | inhibited tumor growth better than GFP oligonucleotide or G3139 antisense oligonucleotides
U3AS: ERV-9 LTR U3 antisense oligonucleotide CTGATTGGTGTGTTTACAAACCTTGAG, phosphorothioate internucleoside linkages at each position (all phosphorothioate, sugars by position and methylation of C not given here) [Oligo U3AS] | inhibited cell proliferation better than GFP oligonucleotide | inhibited cell proliferation better than GFP control and G3139, GRN163 and MDM2 antisense oligonucleotides | inhibited cell proliferation better than GFP control and G3139, GRN163 and MDM2 antisense oligonucleotides | inhibited cell proliferation better than GFP control and G3139, GRN163 and MDM2 antisense oligonucleotides | inhibited cell proliferation better than GFP oligonucleotide | resulted in a significant decrease in proliferation of each cancer cell line tested, relative to GFP control oligonucleotide | inhibited proliferation to a greater extent than the Bcl-2, telomerase and MDM2-specific antisense oligonucleotides, either alone or in combination with VP16 | inhibited tumor growth when co-administered with VP16 better than GFP oligonucleotide or G3139 antisense oligonucleotide | had reduced tumor burden for both MDA-231 and HT1080 tumors, although this did not reach statistical significance | inhibited tumor growth better than GFP oligonucleotide or G3139 antisense oligonucleotides | inhibited tumor growth when co-administered with VP16 better than GFP oligonucleotide or G3139 antisense oligonucleotide | had reduced tumor burden for both MDA-231 and HT1080 tumors, although this did not reach statistical significance | inhibited tumor growth better than GFP oligonucleotide or G3139 antisense oligonucleotides
